The values that follow come from patent US7265120B2, “Pyrazine derivatives and pharmaceutical use thereof” (Astellas Pharma Inc., priority 2004, dated 2007).

By Ki is commonly meant a dissociation constant, usually derived from enzyme kinetics or from competition with a known ligand. Higher therefore signals lower affinity. What is called melting point is the temperature, or range, at which the solid turns liquid.

Where only a bound is given, the exact number is not on record here.

One data set addresses T1, human A1 receptor (Homo sapiens, UniProt P30542).
T1 sequence (P30542 1-326): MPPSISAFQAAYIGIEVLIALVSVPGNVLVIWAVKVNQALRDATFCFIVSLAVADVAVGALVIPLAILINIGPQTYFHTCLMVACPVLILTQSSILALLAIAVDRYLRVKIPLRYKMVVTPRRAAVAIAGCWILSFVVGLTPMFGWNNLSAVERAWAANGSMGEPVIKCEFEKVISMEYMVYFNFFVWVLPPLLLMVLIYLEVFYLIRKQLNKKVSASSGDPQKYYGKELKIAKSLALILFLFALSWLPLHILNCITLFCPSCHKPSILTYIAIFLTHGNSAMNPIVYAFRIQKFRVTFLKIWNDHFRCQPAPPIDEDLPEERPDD
Nature of the data set: Adenosine antagonistic activity, radioligand binding ([3H]DPCPX). Particulars: [3H]DPCPX 4.5 nM. The protocol:
(§1) Test 1: Adenosine Antagonistic Activity
(§2) The adenosine antagonistic activity [Ki (nM)] of the test compound was examined by radioligand binding techniques using 8-cyclopentyl-1,3-dipropylxanthine, [dipropyl-2,3-^3H(N)] ([^3H]DPCPX, 4.5 nM) for human A1 receptor and [^3H]CGS 21680 (20 nM) for human A2a receptor.

The test system of another data set is ddY mice. The data set is described as follows: Anticatalepsy activity in mouse (haloperidol-induced catalepsy, bar test). It counts as in vivo. Particulars: 3.2 mg/kg orally, ddY mice n=7; haloperidol 0.32 mg/kg i.p. 30 min after compound; measured 30 min after injection, up to 30 sec. Here is the method: Test 2: Anticatalepsy Activity in Mouse [I] Test Method
The test compound (3.2 mg/kg) was administered orally with ddY mice (n=7). Then, haloperidol (0.32 mg/kg) was injected intraperitoneally 30 min. after the administration of the compound. Thirty min. after the injection, the cataleptic responses of mice were measured. The forelimbs of each mouse were placed on a 3 cm high, 3 mm wide horizontal bar, and the duration of cataleptic posture was measured for up to 30 sec.

The next data set has as its target human A2a receptor (Homo sapiens, UniProt P29274). The data set is described as follows: Adenosine antagonistic activity, radioligand binding ([3H]CGS 21680). The following applies: [3H]CGS 21680 20 nM. The protocol:
as §1, §2

human A2a receptor, sequence (P29274 whole entry): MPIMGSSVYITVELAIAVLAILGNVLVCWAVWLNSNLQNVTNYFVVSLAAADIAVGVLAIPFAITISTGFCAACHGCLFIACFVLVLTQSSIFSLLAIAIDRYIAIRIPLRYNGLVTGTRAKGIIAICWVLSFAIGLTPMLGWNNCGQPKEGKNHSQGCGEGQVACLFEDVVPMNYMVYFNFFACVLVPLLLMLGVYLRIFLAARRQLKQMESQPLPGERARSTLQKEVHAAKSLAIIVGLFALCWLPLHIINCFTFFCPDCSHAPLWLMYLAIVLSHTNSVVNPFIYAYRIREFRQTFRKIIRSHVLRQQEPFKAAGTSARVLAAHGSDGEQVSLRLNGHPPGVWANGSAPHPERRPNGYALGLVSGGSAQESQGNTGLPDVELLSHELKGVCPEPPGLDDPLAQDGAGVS

As for `Cn1nc(-c2nc(C#N)c(N)nc2-c2ccccc2)ccc1=O` [Example 17, 3-Amino-6-(1-methyl-6-oxo-1,6-dihydro-3-pyridazinyl)-5-phenyl-2-pyrazinecarbonitrile], the melting point was greater than 250 °C. The same molecule had a Ki at human A1 receptor of 11.2 nM. Further, the “Manifestation rate of Catalepsy (number of mouse)” value (shortened to “Manifestation rate of Catalepsy”) in the data set on ddY mice is on record as 0/7. This molecule also gave a Ki at human A2a receptor of 1.72 nM.

For `CC(C)n1nc(-c2ncc(N)nc2-c2ccc(F)cc2)ccc1=O` [Example 36, 6-[5-Amino-3-(4-fluorophenyl)-2-pyrazinyl]-2-isopropyl-3(2H)-pyridazinone], the inhibition constant Ki at human A1 receptor is 23 nM; on human A2a receptor, 6.89 nM. In addition, in the data set with ddY mice, the “Manifestation rate of Catalepsy” value is 0/7.

As to `CC(C)n1nc(-c2nc(Cl)c(N)nc2-c2ccc(F)cc2)ccc1=O` [Example 37, 6-[5-Amino-6-chloro-3-(4-fluorophenyl)-2-pyrazinyl]-2-isopropyl-3(2H)-pyridazinone], the Ki at human A1 receptor is 15.9 nM; at human A2a receptor it was 2.65 nM. The “Manifestation rate of Catalepsy” value in the data set with ddY mice is listed as 0/7.

Molecule `CC(C)n1nc(-c2nc(Br)c(N=S(C)C)nc2-c2ccccc2)ccc1=O` [Example 66, 6-{6-bromo-5-[(dimethyl-lambda˜4˜-sulfanylidene)amino]-3-phenyl-2-pyrazinyl}-2-isopropyl-3(2H)-pyridazinone] yielded a melting point of 220 to 224 °C. This molecule returned a Ki at human A1 receptor of 16 nM. Further, the “Manifestation rate of Catalepsy” value in the data set on ddY mice is 1/7. The same molecule returned a Ki on human A2a receptor of 6.79 nM.

For the molecule `CC(C)n1nc(-c2nc(C#Cc3ccccc3)c(N)nc2-c2ccccc2)ccc1=O` [Example 70, 6-[5-amino-3-phenyl-6-(phenylethynyl)-2-pyrazinyl]-2-isopropyl-3(2H)-pyridazinone], the melting point is 239 to 241 °C. Besides, on human A1 receptor, the Ki came out at 0.88 nM. Further, the “Manifestation rate of Catalepsy” value with ddY mice is listed as 0/7. The Ki on human A2a receptor is 0.29 nM.

As for `CC(C)n1nc(-c2nc(C#Cc3cncn3C)c(N)nc2-c2ccccc2)ccc1=O` [Example 75, 6-{5-amino-6-[(1-methyl-1H-imidazol-5-yl)ethynyl]-3-phenyl-2-pyrazinyl}-2-isopropyl-3(2H)-pyridazinone], the melting point is greater than 250 °C. This molecule displayed a Ki on human A1 receptor of 0.72 nM. Besides, the “Manifestation rate of Catalepsy” value with ddY mice is recorded as 0/7. At human A2a receptor, this molecule registered a Ki of 0.25 nM.

As to `CC(C)n1nc(-c2nc(NCc3ccco3)c(N)nc2-c2ccccc2)ccc1=O` [Example 134, 6-{5-amino-6-[(2-furylmethyl)amino]-3-phenyl-2-pyrazinyl}-2-isopropyl-3(2H)-pyridazinone], the melting point was in the range of 206.5 to 209 °C. This molecule also gave a Ki at human A1 receptor of 6.66 nM. For the same molecule, the “Manifestation rate of Catalepsy” value with ddY mice is 1/7. Further, the Ki at human A2a receptor is 2.6 nM.

Molecule `Cn1nc(-c2nc(-n3cccn3)c(N)nc2-c2ccccc2)ccc1=O` [Example 153, 6-[5-amino-3-phenyl-6-(1H-pyrazol-1-yl)-2-pyrazinyl]-2-methyl-3(2H)-pyridazinone] returned a melting point of 187 to 189.5 °C. The same molecule had a Ki on human A1 receptor of 18.9 nM. The “Manifestation rate of Catalepsy” value in the data set with ddY mice was 2/7. The molecule also showed a Ki on human A2a receptor of 4.95 nM.

As for `CC(C)n1nc(-c2nc(OCc3ccccn3)c(N)nc2-c2ccccc2)ccc1=O` [Example 163, 6-[5-amino-3-phenyl-6-(2-pyridylmethoxy)-2-pyrazinyl]-2-isopropyl-3(2H)-pyridazinone], the melting point was in the range of 150 to 151 °C. In addition, on human A1 receptor, the affinity, expressed as Ki, was 1.35 nM. In addition, in the data set on ddY mice, the “Manifestation rate of Catalepsy” value is listed as 2/7. Further, the Ki on human A2a receptor is 0.42 nM.

`CCCCOc1nc(-c2ccc(=O)n(C)n2)c(-c2ccccc2)nc1N` [Example 179, 6-(5-amino-6-butoxy-3-phenyl-2-pyrazinyl)-2-methyl-3(2H)-pyridazinone] yielded a melting point of 143 to 144 °C. The molecule also registered a Ki on human A1 receptor of 16.4 nM. Further, the “Manifestation rate of Catalepsy” value in the data set on ddY mice is given as 1/7. On human A2a receptor, the affinity corresponds to a Ki of 1.57 nM.

Take `Cn1nc(-c2nc(OCc3ccco3)c(N)nc2-c2ccccc2)ccc1=O` [Example 184, 6-[5-amino-6-(2-furylmethoxy)-3-phenyl-2-pyrazinyl]-2-methyl-3(2H)-pyridazinone]: the melting point is 158 to 159.5 °C. At human A1 receptor, the Ki stood at 13.2 nM. In addition, the “Manifestation rate of Catalepsy” value in the data set on ddY mice is 2/7. The same molecule returned a Ki on human A2a receptor of 1.49 nM.

The molecule `CC(C)n1nc(-c2nc(C#N)c(C#N)nc2-c2ccccc2Br)ccc1=O` [Example 195, 5-(2-bromophenyl)-6-(1-isopropyl-6-oxo-1,6-dihydro-3-pyridazinyl)-2,3-pyrazinedicarbonitrile] came in with a melting point of 159.5 to 161 °C.

The molecule `COc1ccc(CNc2nc(-c3ccccc3Br)c(-c3ccc(=O)n(C(C)C)n3)nc2C#N)cc1` [Example 196, 5-(2-bromophenyl)-6-(1-isopropyl-6-oxo-1,6-dihydro-3-pyridazinyl)-3-[(4-methoxybenzyl)amino]-2-pyrazinecarbonitrile] showed a melting point of 76 to 78 °C.

For the molecule `CC(C)n1nc(-c2nc(N)c(C#N)nc2-c2ccccc2Br)ccc1=O` [Example 197, 3-amino-6-(2-bromophenyl)-5-(1-isopropyl-6-oxo-1,6-dihydro-3-pyridazinyl)-2-pyrazinecarbonitrile], the melting point lay in the range of 241 to 243 °C.

For `CC(C)n1nc(-c2nc(C(=O)O)c(N)nc2-c2ccccc2Br)ccc1=O` [Example 198, 3-amino-5-(2-bromophenyl)-6-(1-isopropyl-6-oxo-1,6-dihydro-3-pyridazinyl)-2-pyrazinecarboxylic acid], the melting point is 237 °C (dec.).

`CC(C)n1nc(-c2ncc(N)nc2-c2ccccc2Br)ccc1=O` [Example 199, 6-[5-amino-3-(2-bromophenyl)-2-pyrazinyl]-2-isopropyl-3(2H)-pyridazinone]: the melting point lay in the range of 189 to 191 °C.
